The subject of test [1] is Human saphenous vein vascular smooth muscle cells. Description: Vascular smooth muscle cell apoptosis at migrating wound edge, in situ end labeling. It counts as cell-based. The conditions noted are these: 1 mg/mL, 24 hours after wounding, n=4, p<0.05. The procedure:
Human saphenous vein vascular smooth muscle cells were explanted from surplus segments of vein from patients undergoing coronary artery bypass surgery. Cells were maintained in Dulbecco's modified essential medium supplemented with […], 2 mmol/L L-glutamine and 10% fetal calf serum and were grown to confluence on glass coverslips. The cell layer was then subjected to scrape-wounding by drawing a fine cell scraper across the coverslip. Proliferation of the vascular smooth muscle cells was inhibited by addition of 2 mM hydroxyurea to the culture media. Vascular smooth muscle cells that are treated in this manner respond to the wounding of the confluent monolayer by migrating into the wound (Hammerle et al (1991) Vasa 20, 207-215). The percentage of apoptotic cells in the migrating edge (outermost 100 μm from the wound) was assessed by in situ end labeling at 24 hours after wounding (as in George et al (2001) Gene Therapy 8 668-676).

A further test has as its system control 3T3 cells. Briefly: Neurite outgrowth of rat cerebellar neurons on control 3T3 monolayers (Example 15). It counts as cell-based. The note with it: increasing concentrations (FIG. 23). The procedure: Cell culture and neurite outgrowth assays. Co-cultures of cerebellar neurons on monolayers of control 3T3 cells and monolayers of transfected 3T3 cells that express physiological levels of chick N-cadherin or human L1 were established as previously described (Williams et al., Neuron 13:583-594, 1994). In brief, 80,000 3T3 cells (control and transfected) were plated into individual chambers of an eight-chamber tissue culture slide coated with polylysine and fibronectin and cultured in DMEM/10% FCS. After 24 hours, when confluent monolayers had formed, the medium was removed and 3000 cerebellar neurons isolated from post-natal day 2-3 rats were plated into each well in SATO media (Doherty et al., Nature 343:464-466, 1990) supplemented with 2% FCS. All of the test peptides were added immediately before the neurons as a 2× stock prepared in SATO/2% FCS. The co-cultures were maintained for 16-18 hours, at which time they were fixed and immunostained for GAP-43 which is present only in the neurons and delineates the neuritic processes. The mean length of the longest neurite per cell was measured for 150-200 neurons sampled in replicate cultures as previously described (Williams et al., Neuron 13:583-594, 1994). […] Dose-response curves were evaluated and the EC50 values determined.

“Also recorded” adds a separate entry of the source.

On to `CC(=O)N[C@H]1CSSC[C@@H](C(N)=O)NC(=O)[C@H](C(C)C)NC(=O)[C@H](C)NC(=O)[C@H](Cc2c[nH]cn2)NC1=O` [N—Ac—CHAVC—NH2, N-Ac-Cys-His-Ala-Val-Cys-NH2], for which the “increase in apoptosis at wound edge” value in test [1] is on record as 3±1 fold. Also, in the test on control 3T3 cells, the “effect on neurite extension over control 3T3 cells” value is recorded as “had no effect on the basal growth over 3T3 cells; also recorded: no significant effect on neurite extension over control 3T3 cells”.

(Values after patent publication US20040106545A1, “Compounds and methods for modulating cell adhesion” (priority 1996, published 2004).)
